Measurements published in publication PMC7113753 (Antiviral Research, 2018).
“Also recorded” adds a separate entry of the source. Read-outs that look alike come from different tables or passages of the source.

What was measured:
PEDV PL2^pro [1] = molecular target: T1, PEDV PL2^pro (Porcine epidemic diarrhea virus, UniProt V5W8W2); experiment: biochemical; type: biochemical
PEDV PL2^pro [2] = molecular target: T1, PEDV PL2^pro; type: biochemical
human USP2 = details: cited from earlier work

Compound `Sc1ncnc2nc[nH]c12` [6MP, 6-mercaptopurine] has an IC50 (PEDV PL2^pro [1]) of 58.1 ± 5.7 µM.
In the case of `Nc1nc2nc[nH]c2c(=S)[nH]1` [6TG, 6-thioguanine], the “IC50 of 6TG fold lower than that of 6MP” value (PEDV PL2^pro [1]) is given as 4.2 fold, the pattern of inhibition (PEDV PL2^pro [2]) is given as “noncompetitive inhibitor; also recorded: noncompetitive pattern of inhibition” and the pattern of inhibition (human USP2) is given as “noncompetitive inhibitory effect”.
`CCN(CC)C(=S)SSC(=S)N(CC)CC` [Disulfiram] showed an IC50 (PEDV PL2^pro [1]) of over 100 µM.
In the case of `O=C(O)CN(CCN(CC(=O)O)CC(=O)O)CC(=O)O` [EDTA], the “inhibition of DUB activity by EDTA (in words)” value (PEDV PL2^pro [1]) is reported as “dose-dependent pattern”.
For `Cc1ccc(N)cc1C(=O)N[C@H](C)c1cccc2ccccc12` [GRL0617], the IC50 (PEDV PL2^pro [1]; read-out: IC50 (DUB activity), pH 6.5) was over 100 µM.
For `O=c1[nH]cnc2nc[nH]c12` [Hypoxanthine], the IC50 (PEDV PL2^pro [1]) was over 200 µM and the “inhibitory activity (in words)” value (PEDV PL2^pro [1]) was “devoid of inhibitory activity”.
`COc1c(C)c2c(c(O)c1C/C=C(\C)CCC(=O)O)C(=O)OC2` [Mycophenolic acid] showed an IC50 (PEDV PL2^pro [1]) of over 200 µM.
With zinc ions the “inhibition of DUB activity by external zinc ions (in words)” value (PEDV PL2^pro [1]) was “can be inhibited”.
